According to patent US11147272B2, “Pyridone compounds and agricultural and horticultural fungicides comprising the same as active ingredients” (MITSUI CHEMICALS AGRO, INC., priority 2017, dated 2021):

Tests used:
[1] = tested on: Puccinia recondita; test: Test Example E: Brown rust on wheat; assay type: in vivo; conditions: Brown rust on wheat; class of control value
[2] = tested on: Botrytis cinerea; test: Test Example B: Gray mold on tomato; conditions: Gray mold on tomato; class of control value
[3] = tested on: Colletotrichum orbiculare; test: Test Example H: Anthracnose on cucumber; conditions: Anthracnose on cucumber (Sagami Hanjiro); 250 ppm spray, 2.5 ml/pot; assessed 6 to 10 days after inoculation
Description: Seeds of a test plant (cucumber variety: Sagami Hanjiro) were planted and cultivated until the first leaf appeared. In the test, the inventive compounds were dissolved into dimethyl sulfoxide-methanol mixture solution (volume ratio: 9/1), and the resultant solutions were diluted with well water to a concentration of 250 ppm to obtain the drug solutions. The drug solutions were sprayed to the test plant (2.5 ml/pot). After the drug solutions dried, a conidial suspension (2-4×10^5 conidia/ml) of Colletotrichum orbiculare was inoculated to the plant by spraying. After the inoculation, the plant was kept in a mist chamber at room temperature of 20 to 23° C. for about 24 hours to promote the onset of disease. The degrees of disease development were investigated 6 to 10 days after the inoculation, and the effectiveness of the drug solutions was evaluated.
In Test Examples described above, the degrees of disease development were evaluated in increments of 0.05 from 0 (as no incidence of disease) to 3 (as the degree of disease development in an untreated plant group). Further, control values were calculated using the following equation based on the degree of disease development.
n=Degree of disease development in each treated group
In the table, H: more than 50% control value, L: 50% or less control value, and nt: not tested.

[4] = tested on: Blumeria graminis f. sp. hordei; test: Test Example D: Powdery mildew on barley; conditions: Powdery mildew on barley; class of control value
[5] = tested on: Plasmopara viticola; test: Test Example G: Downy mildew on vine; conditions: Downy mildew on vine (Neomuscat); 250 ppm spray, 2.5 ml/pot; assessed 7 to 10 days after inoculation
[6] = tested on: Alternaia brassicicola; test: Test Example C: Alternaria sooty spot on cabbage; assay type: in vivo; conditions: Alternaria sooty spot on cabbage; class of control value
Description: Seeds of a test plant (cabbage variety: Shikidori) were planted and cultivated until the cotyledons extended.
<Control Value> Control value=100{1−(n/3)}

[7] = tested on: Magnaporthe grisea; test: whole plant or invertebrate; assay type: in vivo; conditions: Blast on rice; class of control value
[8] = tested on: Phytophthora infestans; test: whole plant or invertebrate; assay type: in vivo; conditions: Late blight on tomato; class of control value

Structure (SMILES)	Test E control value class [1]	Test B control value class [2]	Test H control value class [3]	Test D control value class [4]	Test G control value class [5]	Test C control value class [6]	Test A control value class [7]	Test F control value class [8]
C#CCOc1cccc(F)c1-c1c(CC(C)C)cc(Cl)c(=O)n1CC [compound 102]	H (more than 50% control value)	H (more than 50% control value)	H (more than 50% control value)	H (more than 50% control value)	H (more than 50% control value)	H (more than 50% control value)	H (more than 50% control value)	L (50% or less control value)
CCn1c(-c2c(F)cccc2OCOC)c(CC(C)C)cc(Cl)c1=O [compound 103]	H (more than 50% control value)	H (more than 50% control value)	H (more than 50% control value)	H (more than 50% control value)	H (more than 50% control value)	H (more than 50% control value)	H (more than 50% control value)	L (50% or less control value)
C=CCOc1cccc(F)c1-c1c(CC(C)C)cc(Cl)c(=O)n1CC [compound 104]	L (50% or less control value)	H (more than 50% control value)	H (more than 50% control value)	H (more than 50% control value)	H (more than 50% control value)	L (50% or less control value)	H (more than 50% control value)	L (50% or less control value)
CCn1c(-c2c(F)cccc2OCSC)c(CC(C)C)cc(Cl)c1=O [compound 105]	L (50% or less control value)	H (more than 50% control value)	H (more than 50% control value)	L (50% or less control value)	H (more than 50% control value)	H (more than 50% control value)	H (more than 50% control value)	L (50% or less control value)
CCn1c(-c2c(F)cc(F)cc2F)c(C(C)(C)OC)cc(Cl)c1=O [compound 109]	H (more than 50% control value)	H (more than 50% control value)	H (more than 50% control value)	H (more than 50% control value)	L (50% or less control value)	H (more than 50% control value)	H (more than 50% control value)	L (50% or less control value)
CCn1c(-c2ccc(OC)cc2F)c(CC(C)C)ccc1=O [compound 111]	H (more than 50% control value)	H (more than 50% control value)	H (more than 50% control value)	H (more than 50% control value)	H (more than 50% control value)	H (more than 50% control value)	H (more than 50% control value)	L (50% or less control value)
CCn1c(-c2c(F)cc(F)cc2F)c(CNOC)cc(Cl)c1=O [compound 112]	H (more than 50% control value)	H (more than 50% control value)	H (more than 50% control value)	H (more than 50% control value)	L (50% or less control value)	H (more than 50% control value)	L (50% or less control value)	L (50% or less control value)
CCn1c(-c2c(F)cc(OC)cc2F)c(C(C)(C)OC)cc(Cl)c1=O [compound 113]	H (more than 50% control value)	H (more than 50% control value)	H (more than 50% control value)	L (50% or less control value)	L (50% or less control value)	H (more than 50% control value)	H (more than 50% control value)	L (50% or less control value)
CCn1c(-c2c(F)cc(OC)cc2F)c(CNOC)cc(Cl)c1=O [compound 114]	H (more than 50% control value)	H (more than 50% control value)	H (more than 50% control value)	H (more than 50% control value)	L (50% or less control value)	H (more than 50% control value)	L (50% or less control value)	L (50% or less control value)
CCn1c(-c2ccc(OC)cc2F)c(CC(C)C)cc(Cl)c1=O [compound 115]	H (more than 50% control value)	H (more than 50% control value)	H (more than 50% control value)	H (more than 50% control value)	L (50% or less control value)	H (more than 50% control value)	H (more than 50% control value)	L (50% or less control value)
CCn1c(-c2ccc(OC)cc2F)c(CC(C)C)cc(Br)c1=O [compound 116]	H (more than 50% control value)	H (more than 50% control value)	H (more than 50% control value)	H (more than 50% control value)	H (more than 50% control value)	H (more than 50% control value)	H (more than 50% control value)	L (50% or less control value)
CCn1c(-c2ccc(F)cc2F)c(CC(C)C)ccc1=O [compound 117]	H (more than 50% control value)	H (more than 50% control value)	H (more than 50% control value)	H (more than 50% control value)	L (50% or less control value)	H (more than 50% control value)	H (more than 50% control value)	L (50% or less control value)
CCn1c(-c2ccc(O)cc2F)c(CC(C)C)cc(Cl)c1=O [compound 118]	H (more than 50% control value)	H (more than 50% control value)	L (50% or less control value)	L (50% or less control value)	L (50% or less control value)	H (more than 50% control value)	L (50% or less control value)	L (50% or less control value)
CCn1c(-c2ccc(F)cc2F)c(CC(C)C)cc(Cl)c1=O [compound 119]	H (more than 50% control value)	H (more than 50% control value)	H (more than 50% control value)	H (more than 50% control value)	H (more than 50% control value)	H (more than 50% control value)	H (more than 50% control value)	L (50% or less control value)
